For test [1], the system named is PSM genes (PSMA7, PSMB4, PSMB7, PSMC1, PSMC4, PSMD1, PSMD12). The test can be described thus: mRNA levels of representative PSM genes by quantitative RT-PCR in LNCaP and HT-29 cells treated with proteasome inhibitors or MLN4924. The format is cell-based, human. The following applies: 10 hrs, normalized to GAPDH, DMSO set to 1. As to the method: (§1) The human prostate cancer LNCaP and colon cancer HT29 cell lines were incubated with different proteasome inhibitors (MG132, YU101, and bortezomib) or the Nedd8 pathway inhibitor MLN4924 (Soucy et al., 2009, Nature, 458, 732-736). Prostate cancer LNCaP and colon cancer HT-29 cells were treated with the indicated concentrations of proteasome inhibitors (MG132, YU101, and Bortezomib) or the Nedd8 pathway inhibitor (MLN4924) for 10 hrs, and mRNA levels of representative PSM genes were analyzed by quantitative RT-PCR (FIGS. 1A-1C). The values were normalized to GAPDH and for each cell line the DMSO treated sample was set to 1. Error bars denote SD (n=3). […] MLN4924 works by inhibiting the Nedd8-activating enzyme, the result of which is the accumulation of cullin-RING ligase (CRL) substrates (Soucy et al., 2009).
(§2) RNA was isolated using the RNeasy kit (Qiagen). cDNA was prepared using the Superscript III first strand synthesis kit (Invitrogen) according to the manufacturer's recommendations. Quantitative PCR (qPCR) was performed using the SYBR GreenER supermix (Invitrogen).

The subject of test [2] is PSM genes. The test can be described thus: mRNA levels of representative PSM genes by quantitative RT-PCR in MEFs (WT, Nrf1−/−, Nrf2−/−; retroviral transduction). The format is cell-based, mouse. The conditions noted are these: 10 hrs. As to the method:
Specifically, MEFs of different genotypes (WT, Nrf1^−/−, and Nrf2^−/−) were treated for 10 hrs with MG132 as indicated (FIG. 2A), and the cell lysates were used for immunoblotting to detect protein levels of Nrf1 (with the antibody raised against the N-terminus) and Nrf2. β-actin protein levels were used as loading control. RNA from MEFs under the same treatment conditions as above was used for quantitative RT-PCR to assess the mRNA levels of representative PSM genes (FIGS. 2B-2C), The values were normalized to GAPDH and the DMSO treated WT sample was set to 1. Error bars denote SD (n=3).
Nrf1^−/− MEFs were transduced with retrovirus expressing one of Flag-Nrf1, Flag-Nrf1-HA or vector control and 72 hrs later treated with MG132 for 10 hrs as indicated. The cell lysates were used for immunoblotting to detect the levels of exogenous Nrf1 by using tag-specific antibodies (FIG. 3A). β-actin protein levels were used as loading control. RNA from Nrf1^−/− MEFs under the same viral transduction and treatment conditions as above was used for quantitative RT-PCR to assess the mRNA levels of representative PSM genes (FIG. 3B). The values were normalized to GAPDH and the vector-transduced DMSO-treated sample was set to 1. Error bars denote SD (n=3).
WT and Nrf1^−/− MEFs were transduced with retrovirus expressing sh-Nrf1 or vector control and 72 hrs later treated with MG132 for 10 hrs as indicated. […] RNA from MEFs under the same viral transduction and treatment conditions as above was used for quantitative RT-PCR to assess the mRNA levels of representative PSM genes (FIG. 4B). […]
as §2

The test system of test [3] is anti-oxidant response elements (8×AREs). The test is described as follows: 8×ARE-SV40-Luc luciferase reporter assay in LNCaP cells. The format is cell-based, human. The following applies: MG132 alone versus untreated cells. As to the method:
TSA and SAHA were assayed using a luciferase reporter construct. The luciferase reporter was driven by a promoter harboring multimerized anti-oxidant response elements (8×AREs) and was transfected into LNCaP cells.
LNCaP cells were subjected to treatment with one of MG132 (1 μM), TSA (1 μM), SAHA (5 μM), MG132 (1 μM)+TSA (1 μM), or MG132 (1 μM)+SAHA (1 μM) for 10 hrs and the RNA from these cells was used for quantitative RT-PCR to assess the mRNA levels of representative PSM genes (FIG. 5A). The values were normalized to GAPDH and the DMSO-treated sample was set to 1. A representative experiment performed in duplicates is shown. MDA-MB-231 cells were treated with different agents at the same concentrations as above (except MG132 which was used at 5 μM) for 48 hrs after which the cells were used for cell-titer glo assay to assess cell viability. Data from an experiment performed in quadruplicates is shown (FIG. 5B). LNCaP cells transfected with 8×ARE-SV40-Luc construct alone (control) or co-transfected with Flag-Nrf1 were further treated with different agents as indicated (FIG. 10). pRL-TK renilla luciferase expression construct was used as a transfection control for normalization. Sixteen hours later, the cells were harvested and used for Luciferase assay.
(§3) Cells were transiently transfected with the firefly (promoter reporters) and renilla luciferase (pRL-TK; Promega) constructs along with effector plasmid as required. After harvesting the cells, luciferase assays were performed using the Dual Luciferase reporter assay system (E1910; Promega) according to the instructions from the manufacturer. The firefly luciferase activity was normalized to renilla luciferase activity for all experiments.
(In general: A reporter such as luciferase makes a cellular process visible.)

Test [4] relates to murine PSMB6 promoter. The test is described as follows: PSMB6-Luc promoter-reporter luciferase assay in MEFs. The test is classed as cell-based, mouse. The following applies: WT MEFs, MG132 12 hrs. As for the experimental part: (§4) Sequence alignment of the genomic region close to the transcription start site (indicated by +1) of the PSMB6 gene in mouse and human. The putative ARE sequences and the start codon are marked as shown (FIG. 6). WT and Nrf1^−/− MEFs were transfected with the PSMB6-Luc construct and 24 hrs post-transfection, the cells were treated with the indicated concentration of MG132 for 12 hrs after which luciferase assays were performed as described herein (FIG. 7). Error bars denote SD (n=3). […] LNCaP cells were transiently transfected with the indicated reporter constructs along with either a vector control or Flag-Nrf1 expression construct. Forty-eight hours (hrs) after transfection, the cells were further incubated with the indicated concentration of MG132 for 12 hrs after which luciferase assays were performed as described herein (FIG. 9). Error bars denote SD (n=3).
as §3

Test [5] relates to PSMA4 ARE. The test is described as follows: 3×PSMA4-ARE-Luc / 3×PSMA4-mutARE-Luc luciferase assay in LNCaP cells. The test is classed as cell-based, human. As for the experimental part: as §4, §3
Test [6] deals with T1, proteasome (chymotryptic site) (Homo sapiens, UniProt P20618+P28074).
T1 construct: endogenous in cells; host or cells: HT29 human colon cancer cells, treated intact; activity measured in freeze-thaw lysate
The test can be described thus: Proteasome activity recovery assay in HT29 cells after drug wash-out. The test is classed as cell-based. The following applies: HT-29, read-out: inhibition of the chymotryptic site. As to the method:
(§5) Cells were frozen at different time points as indicated and were used for proteasome activity assays as described herein. For each time point, the results are normalized to DMSO-treated control in the case of hatched lines and to CHX-treated control in the case of solid lines. Error bars denote SD (n=3). […] The results were normalized to DMSO-treated control for each cell type. Error bars denote S.E.M. (n=2). […] The next day, the cells were treated with indicated concentrations of YU101 and the pan-caspase inhibitor Z-VAD-FMK, and further incubated for 72 hrs. The cell viability was then assessed using the CellTiter-Glo method (FIG. 12A). The results were normalized to DMSO-treated control which was set to 100% in each case. Error bars denote S.E.M. (n=2). […] The cell lysates were used for immunoblotting to detect the levels of Nrf1 (with the antibody raised against N-terminus) and cleaved caspase-3. β-actin protein levels were used as loading control. […] The cells were then washed with PBS thrice and allowed to recover in fresh medium. At definite time points, the cells were freeze-thawed in TE buffer (20 mM Tris pH 8, 5 mM EDTA) and subsequently used for measuring proteasome activity as described previously (Demo et al., 2007).

Test [7] relates to NQO1. The test is described as follows: NQO1 mRNA level by quantitative RT-PCR in LNCaP and HT-29 cells. The test is classed as cell-based, human. The following applies: 10 hrs, same treatment conditions. As to the method:
as §1, §2

The target of test [8] is T2, proteasome (Mus musculus, UniProt O09061+O55234).
T2 construct: endogenous in cells; host or cells: WT and Nrf1-/- mouse embryonic fibroblasts, immortalized with shRNA against p19ARF
The test is described as follows: Proteasome activity recovery assay in WT and Nrf1−/− MEFs. The following applies: YU101 300 nM 1 hr then wash-off, single-phase exponential curve fit. The format is cell-based. As to the method: as §5

Test [9] concerns cleaved caspase-3. The test is described as follows: Immunoblot of cleaved caspase-3 in MDA-MB-231 and U2OS cells. The format is cell-based, human. The following applies: Nrf1-depleted cells; YU101 48 hrs (MDA-MB-231) or 24 hrs (U2OS). As to the method: (§6) HT29 cells were treated with either MG132 (2 μM), YU101 (100 nM) or Bortezomib (40 nM) for 1 hr after which the drugs were washed off and the cells were allowed to recover in the absence or presence of 50 μg/ml cycloheximide (CHX) (FIG. 11A). Cells were frozen at different time points as indicated and were used for proteasome activity assays as described herein. For each time point, the results are normalized to DMSO-treated control in the case of hatched lines and to CHX-treated control in the case of solid lines. Error bars denote SD (n=3). WT and Nrf1^−/− MEFs were treated with either MG132 (50 μM) or YU101 (300 nM) for an hour after which the drugs were washed off and proteasome activity was measured for cells collected at different time points as indicated (FIG. 11A). […] The results were normalized to DMSO-treated control for each cell type. Error bars denote S.E.M. (n=2). MDA-MB-231 and U2OS cells were transduced with retrovirus expressing either sh-Nrf1 or vector control, and 48 hrs later were seeded in to 96-well plates. The next day, the cells were treated with indicated concentrations of YU101 and the pan-caspase inhibitor Z-VAD-FMK, and further incubated for 72 hrs. The cell viability was then assessed using the CellTiter-Glo method (FIG. 12A). The results were normalized to DMSO-treated control which was set to 100% in each case. Error bars denote S.E.M. (n=2). […]
On the technique in general: In western blotting, separated proteins are transferred to a membrane and probed.

For test [10], the system named is MDA-MB-231 and U2OS cells. The test is described as follows: CellTiter-Glo cell viability with YU101, sh-Nrf1 and Z-VAD-FMK. The format is cell-based, human. The conditions noted are these: 72 hrs. As for the experimental part:
as §6, with “MDA-MB-231 and U2OS cells were transduced with retrovirus expressing either sh-Nrf1 or vector control, and 48 hrs later were seeded in to 96-well plates. The next day, the cells were treated with indicated concentrations of YU101 and the pan-caspase inhibitor Z-VAD-FMK, and further incubated for 72 hrs.” left out, “12A).” for “12A). The results were normalized to DMSO-treated control which was set to 100% in each case. Error bars denote S.E.M. (n=2).”
Cells in 96-well plates were treated with different agents as required and cell viability was assessed using the Cell-Titer Glo kit (G7572; Promega) according to the protocol recommended by the manufacturer. By employing a luminescence read-out, this kit quantifies the level of ATP which is proportional to the number of viable cells.
For orientation: ATP-based viability assays read luminescence as a measure of living cells.

Where a SMILES comes first, the peptide text is derived from it. The star is where a group is joined. Cbz = O=C(OCc1ccccc1)*; CH2F = FC*

As for `CC(C)C[C@@H](C=O)NC(=O)[C@H](CC(C)C)NC(=O)[C@H](CC(C)C)NC(=O)OCc1ccccc1` [MG132] (Cbz-Leu-Leu-Leu-aldehyde), the “mRNA levels of PSM genes” value in test [1] was “robustly induce mRNA levels of several PSM genes”. The “mRNA levels of PSM genes after MG132” value is listed as “severely blunted in their ability to upregulate PSM genes” in test [2] (Nrf1−/− MEFs), “induced mRNA levels of PSM genes” in test [2] (Nrf2−/− MEFs) and “induced mRNA levels of PSM genes” in [2] (WT MEFs). In addition, the “luciferase expression (8×ARE reporter)” value in [3] is “luciferase expression was increased compared to non-test (untreated) cells”. Moreover, the “luciferase activity (PSMB6 promoter-reporter)” value in [4] is recorded as “dose dependent increase in luciferase activity”. In test [5] (LNCaP with Flag-Nrf1, plus MG132), the “luciferase activation (3×PSMA4-ARE-Luc) in cells overexpressing Flag-Nrf1” value is given as “further enhanced”. The “luciferase activity (3×PSMA4-mutARE-Luc, AREs mutated)” value in [5] (LNCaP, mutated AREs) is listed as “neither MG132 nor overexpressed Flag-Nrf1 induced the synthetic promoter construct”. For the same molecule, in test [5] (LNCaP, versus DMSO-treated / vector control, MG132 12 hrs), the “luciferase activity (3×PSMA4-ARE-Luc)” value was “an increase in luciferase activity was observed when compared to DMSO-treated control”. Besides, the inhibition at 2 µM in test [6] is 80 to 90%.

As to `NS(=O)(=O)OC[C@@H]1C[C@@H](n2ccc3c(N[C@H]4CCc5ccccc54)ncnc32)C[C@@H]1O` [MLN4924], the “mRNA levels of PSM genes” value in test [1] is reported as “failed to appreciably induce the PSM genes”. Besides, the “NQO1 mRNA (Nrf2 target gene)” value in test [7] is “activation of its downstream target genes, as observed for NQO1”.

Regarding `CC(=O)NC(CCc1ccccc1)C(=O)NC(CC(C)C)C(=O)NC(Cc1ccccc1)C(=O)NC(CC(C)C)C(=O)C1(C)CO1` (centres unmarked) [YU101], the “mRNA levels of PSM genes” value in test [1] is “robustly induce mRNA levels of several PSM genes”. For the same molecule, the “time taken to recover half of the inhibited activity” value in test [8] (Nrf1−/− MEFs) was 15.96 ± 5.49 h; in test [8] (WT MEFs), 6.92 ± 1.64 h. For the same molecule, the “level of cleaved caspase-3” value in [9] was “elicited an enhanced level of cleaved caspase-3”.

Turning to `COC(=O)C[C@H](NC(=O)[C@H](C)NC(=O)[C@@H](NC(=O)OCc1ccccc1)C(C)C)C(=O)CF` [Z-VAD-FMK] (Cbz-Val-Ala-Asp(OMe)-CH2F), in test [10], the “effect of co-treatment on sensitization to YU101 killing” value is “this effect was blunted”.

One may read the inhibition as the relative decrease from the control value, in per cent.
